Laboratory results as given in US20090118331A1, “Use of Lobeline Epimers in the Treatment of Central Nervous System Diseases, Pathologies, and Drug Abuse” (priority 2007, published 2009).
Where “and” joins values, the source holds several entries; their conditions need not be identical. Equal entries are not always repeated.

How the values were obtained:
clinical = details: human, in vivo
Method: Three consecutive doses of lobeline (either 30, 45 and 45 mg in the first study group, or 60, 60 and 60 mg in the second group) were administered to human volunteers at 0800, 1200 and 1600 over two full inpatient days. The pharmacokinetics of lobeline and epimer were then assessed in each subject. […] A crude index of accumulation (non-steady state) was obtained by dividing the sixth dose trough concentration by that observed for the fifth dose.

in vivo = details: for AUC(0-inf) / AUC(0-t) / Cmax / MRT last / Tmax / Vd / clearance / half-life: rat, in vivo
Method: Here, serial doses of lobeline were administered to male and female rats intravenously, subcutaneously or orally, and the pharmacokinetic profiles of the parent lobeline and its epimer were monitored in plasma.

[1] = Lobeline conversion to epimer in the buffer system used at 37° C. in the VMAT2 uptake study (HPLC); assay type: physicochemical; details: for Lobeline %: VMAT2 uptake buffer, 37° C.
[2] = Lobeline epimerization in pH 7.4 phosphate buffer control; details: after 2 hours, with impurity
Method: In order to determine the tendency of lobeline to undergo epimerization in the HEPES buffer employed in the 25° C. [^3H]DTBZ binding study and the 37° C. VMAT2 uptake studies previously described, analogous solution epimerization experiments were conducted using the corresponding conditions for each individual assay. […] As this dynamic phenomenon occurs, the ratio of lobeline to lobeline epimer in solution naturally changes over time. Further, depending upon the solution conditions, the rate and extent of epimerization may vary; thus, a ratio of lobeline to epimer, if achieved, may occur at various time points. After 2 hours, the 25° C. […] The epimerization of lobeline in the 37° C.

[3] = Lobeline conversion to epimer in the HEPES buffer system used at 25° C. in the [^3H]DTBZ binding study (HPLC); assay type: physicochemical; details: for Lobeline %: [^3H]DTBZ binding buffer, 25° C.
Method: The initial dissolution of lobeline in water was followed by a 1:1 dilution of this stock solution in the appropriate HEPES buffer system, incubation at the prescribed temperature, and HPLC assay of each epimer and potential degradants over 2 hour incubation.
After 2 hours, the 25° C.

[4] = Lobeline conversion to epimer in deionized water (HPLC); assay type: physicochemical
Method: Extensive in vitro studies on the epimerization of lobeline were conducted in a variety of aqueous media. […] The concentration of the lobeline solution (500 mL) was ca. 0.5 mg/mL, and 1.5 mL aliquot parts were removed in triplicate at each time point and analyzed by HPLC. Corresponding pH measurements were performed with a Coming Model 240 pH meter.

[5] = Pharmacokinetics of lobeline and epimer in human subjects after sublingual lobeline administration (7.5, 15, 30 mg); details: for AUCext (percent of AUC(0-∞) determined by extrapolation) / Tlast (time of last measurable plasma concentration) / λz (terminal exponential rate constant): lobeline in plasma; for AUCext (percent of AUC(0-∞) determined by extrapolation) / Tlast (time of last measurable plasma concentration) / λz (terminal exponential rate constant) / CL/F (extravascular clearance): individual human subjects; for CL/F (extravascular clearance): lobeline
From the text: The pharmacokinetics of lobeline and lobeline epimer were examined in eight human subjects (Sub) after sublingual lobeline administration.

[6] = sublingual lobeline 30.0 mg, listed as lobeline

## CN1[C@@H](CC(=O)c2ccccc2)CCC[C@H]1C[C@H](O)c1ccccc1 [Lobeline, 2-[6S-(2S-hydroxy-2-phenyl-ethyl)-1-methyl-piperidin-2R-yl]-1-phenyl-ethanone]
clinical
  half-life: 3.91 h
  time at which geometric mean plasma concentration peaked: 1.26 h
In vivo; female, iv, 2 mg/kg
  AUC(0-inf): 134 ng·h/mL
  AUC(0-t): 133 ng·h/mL
  Cmax: 106 ng/mL
  MRT last: 1.72 h
  Tmax: 0.083 h
  Vd: 27.2 L/kg
  clearance: 0.248 mL/min/kg
  half-life: 1.85 h
In vivo; female, po, 20 mg/kg
  AUC(0-inf): 64.5 ng·h/mL
  AUC(0-t): 62.7 ng·h/mL
  Cmax: 42.5 ng/mL
  MRT last: 1.92 h
  Tmax: 0.5 h
  half-life: 2.29 h
In vivo; female, sc, 3 mg/kg
  AUC(0-inf): 193 ng·h/mL
  AUC(0-t): 191 ng·h/mL
  Cmax: 142 ng/mL
  MRT last: 1.42 h
  Tmax: 0.25 h
  half-life: 1.14 h
In vivo; male, iv, 2 mg/kg
  AUC(0-inf): 135 ng·h/mL
  AUC(0-t): 134 ng·h/mL
  Cmax: 144 ng/mL
  MRT last: 1.54 h
  Tmax: 0.083 h
  Vd: 23.8 L/kg
  clearance: 0.247 mL/min/kg
  half-life: 1.68 h
In vivo; male, po, 20 mg/kg
  AUC(0-inf): 105 ng·h/mL
  AUC(0-t): 104 ng·h/mL
  Cmax: 91.2 ng/mL
  MRT last: 1.88 h
  Tmax: 0.5 h
  half-life: 1.97 h
In vivo; male, sc, 3 mg/kg
  AUC(0-inf): 191 ng·h/mL
  AUC(0-t): 190 ng·h/mL
  Cmax: 162 ng/mL
  MRT last: 1.35 h
  Tmax: 0.083 h
  half-life: 1.18 h
In vivo; rats, depending on sex and route of administration
  ratio of lobeline to epimer in plasma (comparison of AUC; x to 1): 1.5-2
In vivo; rats, females compared to males
  systemic absorption of lobeline, followed by subsequent epimerization, when given orally: significantly reduced in females as compared to males
[1]; 37° C. uptake buffer with ATP-Mg2+ cofactor reduced from 2 mM to 0.4 mM, after 2 hours, with impurity
  component content of solution: 66%
[1]; VMAT2 uptake buffer (HEPES), 2 hour incubation at 37° C.
  final component concentration (as a function of the area under the curve): 69%
[1]; T0, sample age 0:01
  Lobeline %: 98.2%
[1]; T5, sample age 0:05
  Lobeline %: 96.7%
[1]; T10, sample age 0:10
  Lobeline %: 94.4%
[1]; T15, sample age 0:15
  Lobeline %: 91.2%
[1]; T25, sample age 0:25
  Lobeline %: 86.5%
[1]; T30, sample age 0:30
  Lobeline %: 84.7%
[1]; T35, sample age 0:35
  Lobeline %: 83.4%
[1]; T40, sample age 0:40
  Lobeline %: 81.8%
[1]; T45, sample age 0:45
  Lobeline %: 80.6%
[1]; T50, sample age 0:50
  Lobeline %: 79.3%
[1]; T55, sample age 0:55
  Lobeline %: 78.5%
[1]; T60, sample age 1:00
  Lobeline %: 77.2%
[1]; T70, sample age 1:10
  Lobeline %: 75.0%
[1]; T80, sample age 1:20
  Lobeline %: 73.1%
[1]; T90, sample age 1:31
  Lobeline %: 72.2%
[1]; T100, sample age 1:40
  Lobeline %: 71.1%
[1]; T110, sample age 1:50
  Lobeline %: 69.6%
[1]; T120, sample age 2:00
  Lobeline %: 68.5%
[2]; pH 7.4 phosphate buffer control, same temperature as 25° C. binding buffer
  component content of solution: 64%
[2]; phosphate buffer control for the 37° C. VMAT2 uptake buffer
  component content of solution: 62%
[3]; HEPES [^3H]DTBZ binding buffer, after 2 hours at 25° C.
  final component concentration (as a function of the area under the curve): 83%
[3]; T0, sample age 0:01
  Lobeline %: 98.5%
[3]; T5, sample age 0:06
  Lobeline %: 97.8%
[3]; T10, sample age 0:10
  Lobeline %: 96.7%
[3]; T15, sample age 0:15
  Lobeline %: 95.5%
[3]; T20, sample age 0:20
  Lobeline %: 94.7%
[3]; T25, sample age 0:25
  Lobeline %: 94.1%
[3]; T30, sample age 0:31
  Lobeline %: 92.8%
[3]; T35, sample age 0:35
  Lobeline %: 92.7%
[3]; T40, sample age 0:40
  Lobeline %: 91.3%
[3]; T45, sample age 0:45
  Lobeline %: 90.7%
[3]; T50, sample age 0:50
  Lobeline %: 90.1%
[3]; T55, sample age 0:55
  Lobeline %: 89.9%
[3]; T60, sample age 1:00
  Lobeline %: 89.1%
[3]; T70, sample age 1:10
  Lobeline %: 87.8%
[3]; T80, sample age 1:20
  Lobeline %: 86.6%
[3]; T90, sample age 1:31
  Lobeline %: 85.5%
[3]; T100, sample age 1:40
  Lobeline %: 84.5%
[3]; T110, sample age 1:50
  Lobeline %: 83.5%
[3]; T120, sample age 2:01
  Lobeline %: 82.7%
[4]; Solution 1 (Lobeline in “fresh” DI Water), time 0, pH 6.02
  % Lobeline (Mean ± SD): 99.16%
[4]; Solution 1 (“fresh” DI Water), 15 min, pH 6.03-6.24
  % Lobeline (Mean ± SD): 99.17 ± 0.053%
[4]; Solution 1 (“fresh” DI Water), 30 min, pH 6.02-6.24
  % Lobeline (Mean ± SD): 99.01 ± 0.162%
[4]; Solution 1 (“fresh” DI Water), 45 min, pH 6.13-6.37
  % Lobeline (Mean ± SD): 99.06 ± 0.146%
[4]; Solution 1 (“fresh” DI Water), 1 h, pH 6.26-6.52
  % Lobeline (Mean ± SD): 99.00 ± 0.195%
[4]; Solution 1 (“fresh” DI Water), 80 min, pH 6.19-6.50
  % Lobeline (Mean ± SD): 98.54 ± 0.112%
[4]; Solution 1 (“fresh” DI Water), 100 min, pH 6.16-6.50
  % Lobeline (Mean ± SD): 98.50 ± 0.139%
[4]; Solution 1 (“fresh” DI Water), 2 h, pH 5.63-5.88
  % Lobeline (Mean ± SD): 98.42 ± 0.601%
[4]; Solution 2 (Lobeline in “8-h” DI Water), time 0, pH 7.87
  % Lobeline (Mean ± SD): 98.97%
[4]; Solution 2 (“8-h” DI Water), 15 min, pH 7.78-8.21
  % Lobeline (Mean ± SD): 99.34 ± 0.274%
[4]; Solution 2 (“8-h” DI Water), 30 min, pH 7.58-7.85
  % Lobeline (Mean ± SD): 99.49 ± 0.215%
[4]; Solution 2 (“8-h” DI Water), 45 min, pH 7.66-7.68
  % Lobeline (Mean ± SD): 99.35 ± 0.056%
[4]; Solution 2 (“8-h” DI Water), 1 h, pH 6.84-7.11
  % Lobeline (Mean ± SD): 99.20 ± 0.085%
[4]; Solution 2 (“8-h” DI Water), 80 min, pH 6.53-6.79
  % Lobeline (Mean ± SD): 99.11 ± 0.150%
[4]; Solution 2 (“8-h” DI Water), 100 min, pH 6.24-6.51
  % Lobeline (Mean ± SD): 98.99 ± 0.206%
[4]; Solution 2 (“8-h” DI Water), 2 h, pH 6.21-6.49
  % Lobeline (Mean ± SD): 98.78 ± 0.258%
[4]; fresh deionized water or water allowed to absorb atmospheric carbon dioxide for up to 8 hours, 2 hour time course
  conversion of lobeline to lobeline epimer: ca. 1%
[5]; dose range from 7.5 to 30 mg, sublingual, human
  dose linearity of Cmax and CL/F: Linear kinetics
[5]; human, in vivo
  Combined urinary excretion of lobeline and epimer: ≤ 0.5%
[5]; human, in vivo, 30 mg
  AUC(0-inf): 8.02 ng·h/mL
[5]; human, in vivo, 30 mg, Terminal exponential phase half-life (T1/2), average
  half-life: ~2.4 h
[5]; human, in vivo, 30 mg, Terminal exponential phase half-lives (T1/2 values), range
  half-life: 1 to 5 h
[5]; human, in vivo, 30 mg, Tmax values, range
  Tmax: 0.25 to 3 h
[5]; human, in vivo, 30 mg, Tmax, average
  Tmax: 1.4 h
[5]; human, in vivo, mean T1/2 values, human subjects, sublingual lobeline
  half-life: ~2 h
[5]; humans
  equilibrium ratio of lobeline to epimer: 1 to 10
[5]; sublingual lobeline 7.50 mg
  AUCext (percent of AUC(0-∞) determined by extrapolation): 39.3% and 21.5% and 38.5% and 19.2% and 18.0% and 12.3% and 13.6% and 29.5%
  Tlast (time of last measurable plasma concentration): 3.03 hr and 4.00 hr (3×) and 4.05 hr and 6.00 hr (2×) and 12.00 hr
  λz (terminal exponential rate constant): 0.401 h⁻¹ and 0.403 h⁻¹ and 0.195 h⁻¹ and 0.295 h⁻¹ and 0.277 h⁻¹ and 0.183 h⁻¹ and 0.555 h⁻¹ and 0.367 h⁻¹
  CL/F (extravascular clearance): 2328 mL/min/kg and 844 mL/min/kg and 1116 mL/min/kg and 623 mL/min/kg and 792 mL/min/kg and 179 mL/min/kg and 1502 mL/min/kg and 1051 mL/min/kg
[5]; sublingual lobeline 15.0 mg
  AUCext (percent of AUC(0-∞) determined by extrapolation): 16.1% and 14.1% and 6.24% and 6.52% and 14.5% and 12.7% and 18.7% and 18.1%
  Tlast (time of last measurable plasma concentration): 4.17 hr and 4.00 hr and 6.00 hr (3×) and 8.00 hr (2×) and 11.00 hr
  λz (terminal exponential rate constant): 0.513 h⁻¹ and 0.544 h⁻¹ and 0.573 h⁻¹ and 0.341 h⁻¹ and 0.322 h⁻¹ and 0.206 h⁻¹ and 0.185 h⁻¹ and 0.321 h⁻¹
  CL/F (extravascular clearance): 1995 mL/min/kg and 866 mL/min/kg and 1364 mL/min/kg and 550 mL/min/kg and 1183 mL/min/kg and 188 mL/min/kg and 1194 mL/min/kg and 1068 mL/min/kg
[5]; sublingual lobeline 30.0 mg
  Tlast (time of last measurable plasma concentration): 8.02 h
  CL/F (extravascular clearance): 1809 mL/min/kg and 1169 mL/min/kg and 1269 mL/min/kg and 572 mL/min/kg and 1736 mL/min/kg and 162 mL/min/kg and 2340 mL/min/kg and 857 mL/min/kg
[5]; [6]
  AUCext (percent of AUC(0-∞) determined by extrapolation): 7.44% and 6.59% and 5.81% and 5.16% and 20.3% and 3.50% and 8.86% and 5.87%
  Tlast (time of last measurable plasma concentration): 4.00 h and 6.05 h and 12.17 h and 8.03 h and 22.75 h and 6.00 h and 8.00 h
  λz (terminal exponential rate constant): 0.878 h⁻¹ and 0.469 h⁻¹ and 0.314 h⁻¹ and 0.254 h⁻¹ and 0.149 h⁻¹ and 0.151 h⁻¹ and 0.376 h⁻¹ and 0.380 h⁻¹
